{"source": "paper PMC3661498", "about": "(Ophthalmology and Eye Diseases, 2010)", "key": {"[1]": {"tested_on": "[^3H] arginine uptake by rPCEC", "test": "Uptake of [3H] arginine by rPCEC in presence of prodrugs", "format": "cell-based, rabbit", "settings": "5 mM test substance"}, "[2]": {"tested_on": "[^3H] alanine uptake by rPCEC", "test": "Uptake of [3H] alanine by rPCEC in presence of prodrugs, kinetics and affinity", "format": "cell-based, rabbit"}, "[3]": {"tested_on": "[^3H] phenylalanine uptake by rPCEC", "test": "Uptake of [3H] phenylalanine by rPCEC in presence of prodrugs", "format": "cell-based, rabbit", "settings": "5 mM test substance"}, "[4]": {"test": "Transport of drug/prodrugs across freshly excised rabbit cornea", "format": "in vitro ADME", "settings": "New Zealand albino, rabbit, pH 7.4"}, "[5]": {"tested_on": "HSV-1", "test": "In vitro antiviral testing, CPE inhibition, HSV-1", "format": "cell-based", "settings": "Human alphaherpesvirus 1, read-out: EC50 HSV-1 CPE inhibition"}, "[6]": {"tested_on": "HSV-2", "test": "In vitro antiviral testing, CPE inhibition, HSV-2", "format": "cell-based", "settings": "Human alphaherpesvirus 2, read-out: EC50 HSV-2 CPE inhibition"}, "[7]": {"tested_on": "HSV-1", "settings": "read-out: EC50 HSV-1; cited from earlier work"}, "[8]": {"tested_on": "isolated rabbit cornea", "test": "Transport of drug/prodrugs across freshly excised rabbit cornea", "format": "in vitro ADME", "settings": "in presence of 5 mM glutamic acid"}}, "note": "Read-outs that look alike come from different tables or passages of the source.", "data": [{"molecule": "N=C(N)NCCC[C@H](N)C(=O)O", "note": "[arginine, L-arginine]", "values": [{"measurement": "Effect on [^3H] arginine uptake (in words)", "setting": "[1]", "result": "significantly inhibited"}]}, {"molecule": "C[C@H](N)C(=O)O", "note": "[alanine, L-alanine]", "values": [{"measurement": "Effect on [^3H] alanine uptake (in words)", "setting": "[2]; 5 mM test substance", "result": "significantly inhibited"}, {"measurement": "Vmax of alanine uptake", "setting": "[2]; no inhibitor, listed as [^3H] alanine", "result": "0.84 μmoles·min^−1·mg protein^−1"}, {"measurement": "Km", "setting": "[2]; read-out: Km of alanine uptake, no inhibitor", "result": 710, "unit": "µM"}]}, {"molecule": "N[C@@H](Cc1ccccc1)C(=O)O", "note": "[phenylalanine]", "values": [{"measurement": "Effect on [^3H] phenylalanine uptake (in words)", "setting": "[3]", "result": "significantly inhibited"}]}, {"molecule": "Nc1nc2c(ncn2COCCO)c(=O)[nH]1", "note": "[ACV, acyclovir]", "values": [{"measurement": "Papp at 3 h, 1 mM", "setting": "[4]", "result": "2.33 ± 0.73", "unit": "×10⁻⁶ cm/s"}, {"measurement": "EC50", "setting": "[5]", "result": 7.1, "unit": "µM"}, {"measurement": "EC50", "setting": "[6]", "result": 6.6, "unit": "µM"}]}, {"molecule": "CC(C)[C@H](N)C(=O)OCCOCn1cnc2c(=O)[nH]c(N)nc21", "note": "[VACV, valacyclovir]", "values": [{"measurement": "EC50", "setting": "[7]", "result": 9.1, "unit": "µM"}]}, {"molecule": "O=C(O)CCC(=O)O", "note": "[succinate]", "values": [{"measurement": "Effect on transcorneal flux (in words)", "setting": "[8]", "result": "did not cause any significant change"}]}]}
